Measured values as given in US10351548B2, “2-oxo-1,2-dihydropyridine-3-carboxamide compounds and their use as inhibitors of PDK1” (INTERNATIONAL SOCIETY FOR DRUG DEVELOPMENT S.R.L., priority 2015, dated 2019).
Read-outs that look alike come from different tables or passages of the source.

What was measured:
Assay type in all cases: cell-based, human
[1] = tested on: U87MG cells; assay: Annexin V and 7-AAD staining in U87MG cells (apoptosis); settings: 10 μM, 72 h
Method: Dual staining with Annexin V coniugated to fluorescein-isothiocyanate (FITC) and 7-amino-actinomysin (7-AAD) was performed using the commercially available kit (Muse Annexin V and Dead Cell Kit; Merck KGaA, Darmstadt, Germany). U87MG cells or GSCs were treated with DMSO (control), SA16, SA23 or IB35 for 72 h or seven days, respectively. At the end of the treatment periods, the percentages of living, apoptotic and dead cells were acquired and analysed by Muse™ Cell Analyzer as previously described (Daniele, S., et al., Combined inhibition of AKT/mTOR and MDM2 enhances Glioblastoma Multiforme cell apoptosis and differentiation of cancer stem cells. Sci. Rep., 2015. 5.).
It was then investigated whether the reduction in cell proliferation elicited by the PDK1 inhibitors could be associated with apoptosis. U87MG cells were treated for 72 h with DMSO (control), or 10 μM SA16, SA23 or IB35. At the end of the treatment period, the cells were collected, and the level of phosphatidylserine externalisation was evaluated using the Annexin V-staining protocol, as described above (FIG. 3). In FIG. 4 the data are expressed as the percentage of apoptotic cells (the data for the early-stage apoptotic cells shown in white, and the data for the late-stage apoptotic/necrotic cells shown in grey) versus the total number of cells. The data shown represented the mean±SEM of three different experiments. The significance of the differences was determined with a one-way ANOVA with Bonferroni post-test (*** p<0.001 vs. control).

[2] = tested on: U87MG cells; assay: U87MG cell proliferation, MTS assay; settings: for IC50: Homo sapiens, U-87 MG, 72 h, MTS assay
Method: The U87MG cell line was obtained from the National Institute for Cancer Research of Genoa (Italy) and cultured in DMEM 10% FBS and 2 mM glutamine. To isolate GSCs, approximately 2.0×10^6 cells were suspended in 1 mL of a defined serum-free Neural Stem Cell (NSC) medium (Daniele, S., et al., Modulation of A1 and A2B adenosine receptor activity: a new strategy to sensitise glioblastoma stem cells to chemotherapy. Cell death & disease, 2014. 5(11): p. e1539). After 3-4 days of culture, the neurospheres were collected, suspended in NSC medium, dissociated into single cells, and plated for the assays. For the long-term treatment of cells, NSC or complete medium containing drugs was replaced every two to three days.
The human U87MG cells or GSCs were seeded at a density of 3×10^3 cells/well. After 24 h, the cells were treated from one to seven days with fresh growth medium containing different concentrations of SA16, SA23 or IB35. Following the treatment period, cell proliferation was determined using the MTS assay according to manufacturer's instruction. The absorbance of formazan at […] was measured in a colorimetric assay with an automated plate reader (Victor Wallac 2, Perkin Elmer). The results were calculated by subtracting the mean background from the values obtained from each evaluation and were expressed as the percentage of the control (untreated cells). Sigmoid dose-response curve was generated, from which the IC50 values were derived.
As representative GBM cell line, the above U87MG cells were used; this human cell line resulted an appropriate model to study the effects of PDK1 inhibition, because it is deficient for the tumour suppressor phosphatase and tensin homologue (PTEN), a negative regulator of the PI3K/AKT pathway (Wang, S. I., et al., Somatic mutations of PTEN in glioblastoma multiforme. Cancer research, 1997. 57(19): p. 4183-4186). To examine the effects of SA16, SA23 and IB35 on GBM cell growth/survival, U87MG cells were incubated with different concentrations of the new compounds (1 nM-10 μM) for 24 and 72 h. Specifically, U87MG cells were treated in complete medium with different concentrations of SA16, SA23 or IB35 (1 nM-10 μM) for 24 h (A) or 72 h (B). At the end of treatment, cell proliferation was measured using the MTS assay. The data are expressed as a percentage with respect to that of untreated cells (control), which was set to 100%, and are the mean values±SEM of three independent experiments, each performed in duplicate. The significance of the differences reported in FIGS. 1 and 2 was determined with a one-way ANOVA with Bonferroni post-test (* p<0.05, **p<0.01, *** p<0.001 vs. control cells).

[3] = tested on: AKT phosphorylation at Thr308 in U87MG cells; assay: PDK1 activity in U87MG cells, (T308)AKT phosphorylation ELISA; settings: for inhibition at 10 µM: Homo sapiens, U-87 MG, U87MG cells, read-out: peak of inhibition (percentage of PDK1 inhibition); for time of peak of inhibition of (T308)AKT phosphorylation / inhibition of AKT phosphorylation at Thr308: U87MG, 10 μM; for inhibition of AKT phosphorylation at Thr308: 0-120 min
Method: U87MG cells were cultured in 96-well microplates (5.000 cells/well), and treated for different times with 10 μM SA16, SA23 or IB35. At the end of the treatment period, the GSCs were centrifuged at 500×g for 3 minutes; cells were washed twice using fresh saline, and rapidly fixed with 4% (for adherent U87MG cells) or 8% (for suspension GSCs) formaldehyde to preserve activation of specific protein modification. The activity of PDK1 was assessed measuring the levels of phosphorylated AKT on Thr308, using a specific primary antibodies. The subsequent incubation with a secondary HRP-conjugated antibody and the developing solution allowed the colorimetric quantification of the levels of phosphorylated protein. The relative number of cells in each well was then determined using the Crystal-Violet assay. The results were calculated by subtracting the mean background value from the values obtained under each test condition: values were normalised to the number of cells in each well and were expressed as the percentages of the control (untreated cells) values.
280(4): p. 1107-1115). […] At the end of the treatment periods, the levels of (T308)AKT phosphorylation was evaluated using an ELISA kit, as described above. The data reported in FIG. 5 were expressed as the percentage of phosphorylated (T308)AKT relative to those of untreated cells (control), which were set at 100%, and were the mean values±SEM of three independent experiments performed in triplicate.

Compound | percentage of total apoptotic cells [1] | phosphatidylserine externalization (early and late apoptosis/death) [1] | inhibition of U87MG cell proliferation ([2]; 24 h, higher effect observed (1 nM-10 μM tested)) | IC50 ([2]; read-out: IC50 U87MG) | inhibition at 10 µM [3] | time of peak of inhibition of (T308)AKT phosphorylation [3] | inhibition of AKT phosphorylation at Thr308 [3] | IC50 ([2]; read-out: IC50 U87MG cell proliferation)
O=C(CNC(=O)c1cccn(Cc2ccc(F)c(F)c2)c1=O)Nc1ccc2c(c1)/C(=C/c1cnc[nH]1)C(=O)N2 [IB35, (Z)—N-(2-((3-((1H-imidazol-5-yl)methylene)-2-oxoindolin-5-yl)amino)-2-oxoethyl)-1-(3,4-difluorobenzyl)-2-oxo-1,2-dihydro pyridine-3-carboxamide] | 23.0±1.9% | significant phosphatidylserine externalization | 41% | 450 ± 46.2 nM | 54 ± 5.2% | 120 min | significantly inhibited | 
O=C1Nc2ccc(NC(=O)[C@H](NC(=O)c3cccn(Cc4ccc(F)c(F)c4)c3=O)c3ccccc3)cc2/C1=C/c1ncc[nH]1 [SA23, (Z)—(R)—N-(2-((3-((1H-imidazol-2-yl)methylene)-2-oxoindolin-5-yl)amino)-2-oxo-1-phenylethyl)-1-(3,4-difluorobenzyl)-2-oxo-1,2-dihydropyridine-3-carboxamide] |  | significant phosphatidylserine externalization |  | 1170 ± 100 nM | 48.1 ± 5% | 120 min | significantly inhibited | 1170 ± 100 nM
